Test results taken from patent publication US20230151025A1, “SUBSTITUTED THIAZOLOPYRIDINES, SALTS THEREOF AND THEIR USE AS HERBICIDALLY ACTIVE SUBSTANCES” (Bayer Aktiengesellschaft, priority 2020, published 2023).

System: Matricaria inodora (MATIN)
Experiment: Herbicidal pre-emergence action (A), 1280 g/ha
Format: in vivo
Settings: visual grading after ca. 3 weeks vs untreated controls
Source text: (§1) ABUTH: Abutilon theophrasti AGSTE: Agrostis tenuis ALOMY: Alopecurus myosuroides AMARE Amaranthus retroflexus DIGSA: Digitaria sanguinalis ECHCG: Echinochloa crus-galli KCHSC: Kochia scoparia LOLRI: Lolium rigidum MATIN: Matricaria inodora POAAN: Poa annua POLCO: Polygonum convolvulus SETVI: Setaria viridis STEME: Stellaria media VERPE: Veronica persica VIOTR: Viola tricolor
(§2) Seeds of mono- and dicotyledonous weed plants were sown in plastic pots (double sowings with one species of mono- and one species of dicotyledonous weed plants per pot), in sandy loam, and covered with soil. The compounds according to the invention, formulated in the form of wettable powders (WP) or as emulsifiable concentrates (EC), were applied to the surface of the covering soil as aqueous suspension or emulsion, with the addition of 0.5% of an additive, at an application rate of 600 l of water per hectare (converted). Following treatment, the pots were placed in a greenhouse and kept under optimum growth conditions for the test plants. The visual grading of the damage to the test plants was carried out after ca. 3 weeks in comparison to untreated controls (herbicidal effect in percent (%): 100% effect=plants have died off, 0% effect=as control plants).
(§3) Tables A1 to A12, below, show the effects of selected compounds of the general formula (I) according to table 1 on various harmful plants and an application rate corresponding to 1280 g/ha obtained by the experimental procedure mentioned above.

SMILES | herbicidal effect MATIN [%]
Cc1cc2sc([S+](C)[O-])nc2nc1-c1ccccc1F (stereo not drawn) [Example I-104] | 90
Cc1cscc1-c1nc2ncsc2cc1Br [Example I-141] | 90
Cc1cc(C)c(-c2nc3ncsc3cc2C)s1 [Example I-195] | 90

System: Digitaria sanguinalis (DIGSA)
Experiment: Herbicidal pre-emergence action (A), 1280 g/ha
Format: in vivo
Settings: visual grading after ca. 3 weeks vs untreated controls, 100% = plants have died off, 0% = as control plants
Source text: as §1, §2, §3

SMILES | DIGSA, herbicidal effect in percent (%)
Fc1ccccc1-c1nc2nc(Cl)sc2cc1Br [Example I-053, 6-bromo-2-chloro-5-(2-fluorophenyl)thiazolo[4,5-b]pyridine] | 100
Cc1cc2sc([S+](C)[O-])nc2nc1-c1ccccc1F (stereo not drawn) [Example I-104] | 100

System: Kochia scoparia (KCHSC; Bassia scoparia)
Experiment: Herbicidal pre-emergence action (A), 1280 g/ha
Format: in vivo
Settings: visual grading after ca. 3 weeks vs untreated controls
Source text: as §1, §2, §3

SMILES | herbicidal effect KCHSC [%]
Fc1ccccc1-c1nc2nc(Cl)sc2cc1Br [Example I-053, 6-bromo-2-chloro-5-(2-fluorophenyl)thiazolo[4,5-b]pyridine] | 90
Cc1cc2sc([S+](C)[O-])nc2nc1-c1ccccc1F (stereo not drawn) [Example I-104] | 100
Cc1cc(C)c(-c2nc3ncsc3cc2C)s1 [Example I-195] | 90

System: Alopecurus myosuroides (ALOMY)
Experiment: Herbicidal pre-emergence action (A), 1280 g/ha
Format: in vivo
Settings: visual grading after ca. 3 weeks vs untreated controls, 100% = plants have died off, 0% = as control plants
Source text: as §1, §2, §3

SMILES | ALOMY, herbicidal effect in percent (%)
Cc1cscc1-c1nc2ncsc2cc1Br [Example I-141] | 100

System: Amaranthus retroflexus (AMARE)
Experiment: Herbicidal pre-emergence action (A), 1280 g/ha
Format: in vivo
Settings: visual grading after ca. 3 weeks vs untreated controls
Source text: as §1, §2, §3

SMILES | herbicidal effect AMARE [%]
Cc1cc2sc([S+](C)[O-])nc2nc1-c1ccccc1F (stereo not drawn) [Example I-104] | 90
Cc1cscc1-c1nc2ncsc2cc1Br [Example I-141] | 90

System: Stellaria media (STEME)
Experiment: Herbicidal pre-emergence action (A), 1280 g/ha
Format: in vivo
Settings: visual grading after ca. 3 weeks vs untreated controls
Source text: as §1, §2, §3

SMILES | herbicidal effect STEME [%]
Fc1ccccc1-c1nc2nc(Cl)sc2cc1Br [Example I-053, 6-bromo-2-chloro-5-(2-fluorophenyl)thiazolo[4,5-b]pyridine] | 100
Cc1cc2sc([S+](C)[O-])nc2nc1-c1ccccc1F (stereo not drawn) [Example I-104] | 90
Cc1cscc1-c1nc2ncsc2cc1Br [Example I-141] | 90
Cc1cc(C)c(-c2nc3ncsc3cc2C)s1 [Example I-195] | 90

System: Echinochloa crus-galli (ECHCG)
Experiment: Herbicidal pre-emergence action (A), 1280 g/ha
Format: in vivo
Settings: visual grading after ca. 3 weeks vs untreated controls, 100% = plants have died off, 0% = as control plants
Source text: as §1, §2, §3

SMILES | ECHCG, herbicidal effect in percent (%)
Cc1cscc1-c1nc2ncsc2cc1Br [Example I-141] | 100
Cc1cc(C)c(-c2nc3ncsc3cc2C)s1 [Example I-195] | 100

System: Setaria viridis (SETVI)
Experiment: Herbicidal pre-emergence action (A), 1280 g/ha
Format: in vivo
Settings: visual grading after ca. 3 weeks vs untreated controls
Source text: as §1, §2, §3

SMILES | herbicidal effect SETVI [%]
Cc1cc2sc([S+](C)[O-])nc2nc1-c1ccccc1F (stereo not drawn) [Example I-104] | 100
Cc1cscc1-c1nc2ncsc2cc1Br [Example I-141] | 100
Cc1cc(C)c(-c2nc3ncsc3cc2C)s1 [Example I-195] | 100

System: Poa annua (POAAN)
Experiment: Herbicidal pre-emergence action (A), 1280 g/ha
Format: in vivo
Settings: visual grading after ca. 3 weeks vs untreated controls, 100% = plants have died off, 0% = as control plants
Source text: as §1, §2, §3

SMILES | POAAN, herbicidal effect in percent (%)
Fc1ccccc1-c1nc2nc(Cl)sc2cc1Br [Example I-053, 6-bromo-2-chloro-5-(2-fluorophenyl)thiazolo[4,5-b]pyridine] | 100
Cc1cc2sc([S+](C)[O-])nc2nc1-c1ccccc1F (stereo not drawn) [Example I-104] | 100
Cc1cscc1-c1nc2ncsc2cc1Br [Example I-141] | 100
Cc1cc(C)c(-c2nc3ncsc3cc2C)s1 [Example I-195] | 100

System: Veronica persica (VERPE)
Experiment: Herbicidal pre-emergence action (A), 1280 g/ha
Format: in vivo
Settings: visual grading after ca. 3 weeks vs untreated controls
Source text: as §1, §2, §3

SMILES | herbicidal effect VERPE [%]
Cc1cc2sc([S+](C)[O-])nc2nc1-c1ccccc1F (stereo not drawn) [Example I-104] | 90
Cc1cscc1-c1nc2ncsc2cc1Br [Example I-141] | 90
Cc1cc(C)c(-c2nc3ncsc3cc2C)s1 [Example I-195] | 90

System: Lolium rigidum (LOLRI)
Experiment: Herbicidal pre-emergence action (A), 1280 g/ha
Format: in vivo
Settings: visual grading after ca. 3 weeks vs untreated controls, 100% = plants have died off, 0% = as control plants
Source text: as §1, §2, §3

SMILES | LOLRI, herbicidal effect in percent (%)
Cc1cc(C)c(-c2nc3ncsc3cc2C)s1 [Example I-195] | 100

System: Kochia scoparia (KCHSC; Bassia scoparia)
Experiment: Herbicidal post-emergence action (B), 1280 g/ha
Format: in vivo
Settings: not given
Source text: as §1
(§4) Seeds of mono- and dicotyledonous weed plants were placed in plastic pots in sandy loam soil (doubly sown with in each case one species of mono- or dicotyledonous weed plants per pot), covered with soil and cultivated in a greenhouse under controlled growth conditions. 2 to 3 weeks after sowing, the test plants were treated at the one-leaf stage. The compounds of the invention, formulated in the form of wettable powders (WP) or as emulsion concentrates (EC), were applied onto the green parts of the plants as aqueous suspension or emulsion with addition of 0.5% additive at a water application rate of 600 liters per hectare (converted). After the test plants had been kept in the greenhouse under optimum growth conditions for about 3 weeks, the activity of the preparations was rated visually in comparison to untreated controls. For example, 100% activity=the plants have died, 0% activity=like control plants.
(§5) Tables B1 to B12, below, show the effects of selected compounds of the general formula (I) according to table 1 on various harmful plants and an application rate corresponding to 1280 g/ha obtained by the experimental procedure mentioned above.

SMILES | herbicidal effect KCHSC [%]
Fc1ccccc1-c1nc2nc(Cl)sc2cc1Br [Example I-053, 6-bromo-2-chloro-5-(2-fluorophenyl)thiazolo[4,5-b]pyridine] | 90
Cc1cc2sc([S+](C)[O-])nc2nc1-c1ccccc1F (stereo not drawn) [Example I-104] | 100
Cc1cscc1-c1nc2ncsc2cc1Br [Example I-141] | 90
Cc1cc(C)c(-c2nc3ncsc3cc2C)s1 [Example I-195] | 90

System: Alopecurus myosuroides (ALOMY)
Experiment: Herbicidal post-emergence action (B), 1280 g/ha
Format: in vivo
Settings: rated visually after about 3 weeks vs untreated controls
Source text: as §1, §4, §5

SMILES | herbicidal activity ALOMY [%]
Fc1ccccc1-c1nc2nc(Cl)sc2cc1Br [Example I-053, 6-bromo-2-chloro-5-(2-fluorophenyl)thiazolo[4,5-b]pyridine] | 100
Cc1cc(C)c(-c2nc3ncsc3cc2C)s1 [Example I-195] | 100

System: Amaranthus retroflexus (AMARE)
Experiment: Herbicidal post-emergence action (B), 1280 g/ha
Format: in vivo
Settings: rated visually after about 3 weeks vs untreated controls
Source text: as §1, §4, §5

SMILES | herbicidal activity AMARE [%]
Cc1cc2sc([S+](C)[O-])nc2nc1-c1ccccc1F (stereo not drawn) [Example I-104] | 90
Cc1cscc1-c1nc2ncsc2cc1Br [Example I-141] | 90

System: Stellaria media (STEME)
Experiment: Herbicidal post-emergence action (B), 1280 g/ha
Format: in vivo
Settings: not given
Source text: as §1, §4, §5

SMILES | herbicidal effect STEME [%]
Fc1ccccc1-c1nc2nc(Cl)sc2cc1Br [Example I-053, 6-bromo-2-chloro-5-(2-fluorophenyl)thiazolo[4,5-b]pyridine] | 100

System: Echinochloa crus-galli (ECHCG)
Experiment: Herbicidal post-emergence action (B), 1280 g/ha
Format: in vivo
Settings: rated visually after about 3 weeks vs untreated controls
Source text: as §1, §4, §5

SMILES | herbicidal activity ECHCG [%]
Cc1cscc1-c1nc2ncsc2cc1Br [Example I-141] | 90

System: Poa annua (POAAN)
Experiment: Herbicidal post-emergence action (B), 1280 g/ha
Format: in vivo
Settings: rated visually after about 3 weeks vs untreated controls
Source text: as §1, §4, §5

SMILES | herbicidal activity POAAN [%]
Cc1cc(C)c(-c2nc3ncsc3cc2C)s1 [Example I-195] | 100

System: Veronica persica (VERPE)
Experiment: Herbicidal post-emergence action (B), 1280 g/ha
Format: in vivo
Settings: not given
Source text: as §1, §4, §5

SMILES | herbicidal effect VERPE [%]
Cc1cc2sc([S+](C)[O-])nc2nc1-c1ccccc1F (stereo not drawn) [Example I-104] | 100
Cc1cscc1-c1nc2ncsc2cc1Br [Example I-141] | 90

System: Abutilon theophrasti (ABUTH)
Experiment: Herbicidal post-emergence action (B), 1280 g/ha
Format: in vivo
Settings: rated visually after about 3 weeks vs untreated controls
Source text: as §1, §4, §5

SMILES | herbicidal activity ABUTH [%]
Fc1ccccc1-c1nc2nc(Cl)sc2cc1Br [Example I-053, 6-bromo-2-chloro-5-(2-fluorophenyl)thiazolo[4,5-b]pyridine] | 90
